Where two headings read alike, the source gives them in different places.
Tests used:
[1] = tested on: HCC cell lines; settings: HCC cell lines carrying amplified SLC29A2 vs non-amplified cells; FIG. 5A
Description: The cell proliferation and cell viability were detected by […] BLUE® reagent (DAL1100, Thermo Fisher) according to the manufacturer's instruction. […] BLUE® for incubation at 37° C. for 1 hour. The ALAMAR BLUB® fluorescence was excited at 560 nm and measured at 590 nm.

[2] = tested on: SK-hep1 cells; experiment: Cell viability assay (ALAMAR BLUE), SK-hep1 cells with or without ectopic SLC29A2; format: cell-based
Description: HCC cell lines (Sk-hep1 and Mahlavu) were maintained in Dulbecco's modified Eagle's medium (DMEM) with 10% fetal bovine serum, 1% non-essential amino acid, 1% L-glutamine, and 1% penicillin/streptomycin. All cells were tested for mycoplasma contamination.
pcDNA3.0/HA˜SLC29A2 was generated according to Chen et al. (2010) (Hepatologs, 52(5), 1690-1701), To stably express SLC29A2 or STAT3D, HCC cell lines were transfected with the plasmid according to the instruction manual by JetPrime transfection reagent (Polyplus), and further selected in the presence of G418 (SK-hep1: 800 μg/mL, Mahlavu: 500 μg/mL)

[3] = tested on: Stat3; settings: SLC29A2 ectopically expressing cells, FIG. 5D; for SLC29A2-induced Stat3 phosphorylation: 6B
[4] = tested on: SLC29A2-expressing cells; experiment: Trans-well (Boyden chamber) migration assay; format: cell-based; settings: SLC29A2 ectopically expressing cells; FIG. 5C
Description: A total of 1×10^4 cells were seeded in the upper chamber of 8 micron Boyden chamber insert (#MCEP24H48, Millipore) containing a serum-free medium. The inserts were then hanged on the 24-well plate containing a complete medium. After 16 hours, the non-migrated cells were wiped out and the migrated cells were fixed with methanol and stained with Liu's stain. The migrated cells were counted by ImageJ software.

[5] = tested on: SLC29A2; experiment: Confocal microscopy of nuclear translocation; format: cell-based; settings: FIG. 5E
Description: Cells were grown on glass slides. After washing with ice-cold PBS, cells were fixed with methanol, blocked with 5% BSA, and incubated with primary antibodies at 4° C. overnight. The slides were washed with PBS, and incubated with Alexa488 or AIexa594-conjugated secondary antibodies. The slides were then washed with PBS, stained with DAPI and mounted with Dako fluorescent mounting medium (#S3025, Dako). The immunostained cells were acquired by Zeiss LSM 700 laser-scanning microscope with 63X/1.4 objective. The images were analyzed with ZEN, AxioVision, and imagesJ software.

[6] = tested on: late-stage HCC; settings: cited from earlier work
[7] = tested on: luciferase-carrying SK-hep1 cells
Description: All animal procedures were conducted under the approval of the institutional animal care and user committee of Academia Sinica. […] The luciferase activities were detected by the IVIS Image system every two weeks, and the images were analyzed with IVIS operating software.
The mice wore sacrificed 48 weeks after the tumor injection or before the tumors grew larger than allowed. The tumor samples were collected and fixed with 4% paraformaldehyde.

Structure (SMILES)	sensitivity of cells to dipyridamole (cell viability, IC50) [1]	sensitivity of cells to dipyridamole (cell viability) ([2]; SK-hep1 cells expressing SLC29A2 vs control cells, FIG. 5B)	cyclin D1 down-regulation [3]	SLC29A2-induced Stat3 phosphorylation [3]	SLC29A2-induced Stat3 phosphorylation ([3]; listed as SLC29A2 inhibitor)	trans-well migration [4]	Stat3 nuclear translocation [5]	nuclear translocation of SLC29A2 [5]	resistance of cells to sorafenib (cell viability) ([2]; SLC29A2 expressing cells vs control cells, FIG. 6A)	prolongation of overall survival ([6]; late-stage HCC patients who received sorafenib)	side effects ([6]; patients who received sorafenib)	body weight changes and toxicity to mice ([7]; mouse, in vivo)	tumor burden (IVIS) ([7]; oral gavage once a day, sorafenib 10 mg/kg/day, dipyridamole 25 mg/kg/day, 6 weeks after treatment, FIG. 6D)
OCCN(CCO)c1nc(N2CCCCC2)c2nc(N(CCO)CCO)nc(N3CCCCC3)c2n1 [dipyridamole]	sensitive to dipyridamole compared to non-amplified cells	sensitive to dipyridamole than control cells	down-regulation of cyclin D1 was reversed	inhibits the SLC29A2-induced Stat3 phosphorylation	decreased SLC29A2-induced Stat3 phosphorylation in a dosage-dependent manner	reduced trans-well migration of SLC29A2-expressing cells	decreased SLC29A2 and Stat3 nuclear translocation	reduces the nuclear translocation of SLC29A2	–	–	–	–	–
CNC(=O)c1cc(Oc2ccc(NC(=O)Nc3ccc(Cl)c(C(F)(F)F)c3)cc2)ccn1 [sorafenib]	–	–	–	–	–	–	–	–	much more resistant to sorafenib as compared to the control cells	3˜6 months	severe side effects	no significant body weight changes and toxicity	reduced the tumor burden in both SLC29A2-expressing and control groups

— patent US10912777B2 (Academia Sinica, priority 2016, dated 2021)
